Measurements: ChEMBL document CHEMBL3885881, “DrugMatrix”

Organism: Rattus norvegicus
Test: DrugMatrix - Regimen: Daily Repeat
Type: toxicity, organism-based, Sprague-Dawley
Set-up: regimen Daily Repeat, gender Male, age 6-8 weeks
Settings: in vivo, sc, route subcutaneous, […]; for ABSOLUTE BASOPHIL / ABSOLUTE EOSINOPHIL / ABSOLUTE LYMPHOCYTE / ABSOLUTE MONOCYTE / ABSOLUTE SEGMENTED NEUTROPHIL / BASOPHIL / EOSINOPHIL / ERYTHROCYTE COUNT / HEMATOCRIT / HEMOGLOBIN / LEUKOCYTE COUNT / LYMPHOCYTE / MEAN CORPUSCULAR HEMOGLOBIN / MEAN CORPUSCULAR HEMOGLOBIN CONCENTRATION / MEAN CORPUSCULAR VOLUME / MONOCYTE / NEUTROPHIL / NUCLEATED RED BLOOD CELLS / PLATELET COUNT: tissue Blood; for ALANINE AMINOTRANSFERASE / ALBUMIN / ALKALINE PHOSPHATASE / ASPARTATE AMINOTRANSFERASE / BLOOD UREA NITROGEN / CARBON DIOXIDE / CHLORIDE / CHOLESTEROL / CREATINE PHOSPHOKINASE / CREATININE / GLUCOSE / LACTATE DEHYDROGENASE / LIPASE / PHOSPHORUS / POTASSIUM / SODIUM / TOTAL BILIRUBIN / TOTAL PROTEIN / URIC ACID: tissue Plasma
[1] = 0.07 mg/kg, 72 h, dose level Low, time 3 day
[2] = 0.07 mg/kg, 120 h, dose level Low, time 5 day
[3] = 72 h, dose 2.5 mg/Kg, dose level High, time 3 day
[4] = 120 h, dose 2.5 mg/Kg, dose level High, time 5 day

## CC1(C)O[C@@H]2C[C@H]3[C@@H]4C[C@H](F)C5=CC(=O)C=C[C@]5(C)[C@@]4(F)[C@@H](O)C[C@]3(C)[C@]2(C(=O)CO)O1 [FLUOCINOLONE ACETONIDE]
[1]
  ABSOLUTE BASOPHIL: 0 CELLS/uL
  ABSOLUTE EOSINOPHIL: 53 CELLS/uL
  ABSOLUTE LYMPHOCYTE: 3882.67 CELLS/uL
  ABSOLUTE MONOCYTE: 130 CELLS/uL
  ABSOLUTE SEGMENTED NEUTROPHIL: 1667.67 CELLS/uL
  BASOPHIL: 0%
  EOSINOPHIL: 1%
  ERYTHROCYTE COUNT: 5.77 x10E6/uL
  HEMATOCRIT: 37.27%
  HEMOGLOBIN: 13.5 G/DL
  LEUKOCYTE COUNT: 5.73 x10E3/uL
  LYMPHOCYTE: 66%
  MEAN CORPUSCULAR HEMOGLOBIN: 23.4 pg
  MEAN CORPUSCULAR HEMOGLOBIN CONCENTRATION: 36.23 G/DL
  MEAN CORPUSCULAR VOLUME: 64.67 fL
  MONOCYTE: 2.33%
  NEUTROPHIL: 30.67%
  NUCLEATED RED BLOOD CELLS: 0.67 /100WBC
  PLATELET COUNT: 1436 x10E3/uL
  ALANINE AMINOTRANSFERASE: 77.67 u/L
  ALBUMIN: 5.23 G/DL
  ALKALINE PHOSPHATASE: 414.67 u/L
  ASPARTATE AMINOTRANSFERASE: 135.67 u/L
  BLOOD UREA NITROGEN: 21.33 mg/dL
  CARBON DIOXIDE: 24.33 mmol/L
  CHLORIDE: 102 MEQ/L
  CHOLESTEROL: 107 mg/dL
  CREATINE PHOSPHOKINASE: 290 u/L
  CREATININE: 0.31 mg/dL
  GLUCOSE: 275.67 mg/dL
  LACTATE DEHYDROGENASE: 425.33 u/L
  LIPASE: 10.67 u/L
  PHOSPHORUS: 13.03 mg/dL
  POTASSIUM: 5.79 MEQ/L
  SODIUM: 145.07 MEQ/L
  TOTAL BILIRUBIN: 0.27 mg/dL
  TOTAL PROTEIN: 7.07 G/DL
  URIC ACID: 1.47 mg/dL
[2]
  ABSOLUTE BASOPHIL: 0 CELLS/uL
  ABSOLUTE EOSINOPHIL: 0 CELLS/uL
  ABSOLUTE LYMPHOCYTE: 1551.33 CELLS/uL
  ABSOLUTE MONOCYTE: 16 CELLS/uL
  ABSOLUTE SEGMENTED NEUTROPHIL: 3699.33 CELLS/uL
  BASOPHIL: 0%
  EOSINOPHIL: 0%
  ERYTHROCYTE COUNT: 6.67 x10E6/uL
  HEMATOCRIT: 40.23%
  HEMOGLOBIN: 14.73 G/DL
  LEUKOCYTE COUNT: 5.27 x10E3/uL
  LYMPHOCYTE: 32%
  MEAN CORPUSCULAR HEMOGLOBIN: 22.1 pg
  MEAN CORPUSCULAR HEMOGLOBIN CONCENTRATION: 36.6 G/DL
  MEAN CORPUSCULAR VOLUME: 60.37 fL
  MONOCYTE: 0.33%
  NEUTROPHIL: 67.67%
  NUCLEATED RED BLOOD CELLS: 1 /100WBC
  PLATELET COUNT: 1631 x10E3/uL
  ALANINE AMINOTRANSFERASE: 131 u/L
  ALBUMIN: 4.93 G/DL
  ALKALINE PHOSPHATASE: 313 u/L
  ASPARTATE AMINOTRANSFERASE: 231.67 u/L
  BLOOD UREA NITROGEN: 20.33 mg/dL
  CARBON DIOXIDE: 24 mmol/L
  CHLORIDE: 102.33 MEQ/L
  CHOLESTEROL: 92.33 mg/dL
  CREATINE PHOSPHOKINASE: 1505.67 u/L
  CREATININE: 0.26 mg/dL
  GLUCOSE: 389.33 mg/dL
  LACTATE DEHYDROGENASE: 225 u/L
  LIPASE: 10 u/L
  PHOSPHORUS: 13.57 mg/dL
  POTASSIUM: 5.94 MEQ/L
  SODIUM: 147.93 MEQ/L
  TOTAL BILIRUBIN: 0.2 mg/dL
  TOTAL PROTEIN: 6.7 G/DL
  URIC ACID: 2.67 mg/dL
[3]
  ABSOLUTE BASOPHIL: 0 CELLS/uL
  ABSOLUTE EOSINOPHIL: 0 CELLS/uL
  ABSOLUTE LYMPHOCYTE: 365.67 CELLS/uL
  ABSOLUTE MONOCYTE: 12.67 CELLS/uL
  ABSOLUTE SEGMENTED NEUTROPHIL: 5188.33 CELLS/uL
  BASOPHIL: 0%
  EOSINOPHIL: 0%
  ERYTHROCYTE COUNT: 4.97 x10E6/uL
  HEMATOCRIT: 32.1%
  HEMOGLOBIN: 11.87 G/DL
  LEUKOCYTE COUNT: 5.57 x10E3/uL
  LYMPHOCYTE: 6.67%
  MEAN CORPUSCULAR HEMOGLOBIN: 24.1 pg
  MEAN CORPUSCULAR HEMOGLOBIN CONCENTRATION: 37.03 G/DL
  MEAN CORPUSCULAR VOLUME: 64.97 fL
  MONOCYTE: 0.33%
  NEUTROPHIL: 93%
  NUCLEATED RED BLOOD CELLS: 0.67 /100WBC
  PLATELET COUNT: 1062 x10E3/uL
  ALANINE AMINOTRANSFERASE: 159.67 u/L
  ALBUMIN: 4.33 G/DL
  ALKALINE PHOSPHATASE: 320.67 u/L
  ASPARTATE AMINOTRANSFERASE: 309.33 u/L
  BLOOD UREA NITROGEN: 24.33 mg/dL
  CARBON DIOXIDE: 26 mmol/L
  CHLORIDE: 97 MEQ/L
  CHOLESTEROL: 133 mg/dL
  CREATINE PHOSPHOKINASE: 322 u/L
  CREATININE: 0.18 mg/dL
  GLUCOSE: 463 mg/dL
  LACTATE DEHYDROGENASE: 822 u/L
  LIPASE: 9.67 u/L
  PHOSPHORUS: 10.6 mg/dL
  POTASSIUM: 4.57 MEQ/L
  SODIUM: 142.47 MEQ/L
  TOTAL BILIRUBIN: 0.27 mg/dL
  TOTAL PROTEIN: 5.4 G/DL
  URIC ACID: 1.03 mg/dL
[4]
  ABSOLUTE BASOPHIL: 0 CELLS/uL
  ABSOLUTE EOSINOPHIL: 0 CELLS/uL
  ABSOLUTE LYMPHOCYTE: 450 CELLS/uL
  ABSOLUTE MONOCYTE: 219.33 CELLS/uL
  ABSOLUTE SEGMENTED NEUTROPHIL: 11864 CELLS/uL
  BASOPHIL: 0%
  EOSINOPHIL: 0%
  ERYTHROCYTE COUNT: 5.21 x10E6/uL
  HEMATOCRIT: 33.17%
  HEMOGLOBIN: 12.2 G/DL
  LEUKOCYTE COUNT: 12.53 x10E3/uL
  LYMPHOCYTE: 3.67%
  MEAN CORPUSCULAR HEMOGLOBIN: 23.37 pg
  MEAN CORPUSCULAR HEMOGLOBIN CONCENTRATION: 36.87 G/DL
  MEAN CORPUSCULAR VOLUME: 63.37 fL
  MONOCYTE: 1.67%
  NEUTROPHIL: 94.67%
  NUCLEATED RED BLOOD CELLS: 0 /100WBC
  PLATELET COUNT: 587.67 x10E3/uL
  ALANINE AMINOTRANSFERASE: 194 u/L
  ALBUMIN: 3.57 G/DL
  ALKALINE PHOSPHATASE: 289.67 u/L
  ASPARTATE AMINOTRANSFERASE: 380.33 u/L
  BLOOD UREA NITROGEN: 24.33 mg/dL
  CARBON DIOXIDE: 17.67 mmol/L
  CHLORIDE: 95 MEQ/L
  CHOLESTEROL: 90 mg/dL
  CREATINE PHOSPHOKINASE: 1694.33 u/L
  CREATININE: 0.29 mg/dL
  GLUCOSE: 635 mg/dL
  LACTATE DEHYDROGENASE: 429 u/L
  LIPASE: 10 u/L
  PHOSPHORUS: 14.6 mg/dL
  POTASSIUM: 6.12 MEQ/L
  SODIUM: 139.3 MEQ/L
  TOTAL BILIRUBIN: 0.2 mg/dL
  TOTAL PROTEIN: 4.67 G/DL
  URIC ACID: 3.2 mg/dL
